Experimental data published in ChEMBL document CHEMBL5291721, “A preclinical secondary pharmacology resource illuminates target-adverse drug reaction associations of marketed drugs” (Nat Commun, 2023).

Key:
[1] = target: Sodium-dependent noradrenaline transporter (Homo sapiens, UniProt P23975)
[2] = target: Sodium-dependent dopamine transporter (Homo sapiens, UniProt Q01959)
[3] = target: T1, Muscarinic acetylcholine receptor M2 (Homo sapiens, UniProt P08172); type: functional, cell-based
T1 sequence (P08172 whole entry): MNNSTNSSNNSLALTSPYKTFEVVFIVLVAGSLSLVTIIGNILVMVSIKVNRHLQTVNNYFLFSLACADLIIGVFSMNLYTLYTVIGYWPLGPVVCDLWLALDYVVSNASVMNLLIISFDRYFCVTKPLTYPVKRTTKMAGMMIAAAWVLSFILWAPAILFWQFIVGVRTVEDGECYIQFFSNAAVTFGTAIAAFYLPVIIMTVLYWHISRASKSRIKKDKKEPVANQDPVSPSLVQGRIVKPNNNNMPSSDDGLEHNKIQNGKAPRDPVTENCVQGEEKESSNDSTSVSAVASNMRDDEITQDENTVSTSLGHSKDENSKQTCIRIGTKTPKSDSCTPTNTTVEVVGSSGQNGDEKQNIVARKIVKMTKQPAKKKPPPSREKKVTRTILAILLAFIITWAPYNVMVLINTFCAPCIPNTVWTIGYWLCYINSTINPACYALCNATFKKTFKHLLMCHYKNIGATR

[4] = target: D(3) dopamine receptor (Homo sapiens, UniProt P35462)
D(3) dopamine receptor, sequence (P35462 whole entry): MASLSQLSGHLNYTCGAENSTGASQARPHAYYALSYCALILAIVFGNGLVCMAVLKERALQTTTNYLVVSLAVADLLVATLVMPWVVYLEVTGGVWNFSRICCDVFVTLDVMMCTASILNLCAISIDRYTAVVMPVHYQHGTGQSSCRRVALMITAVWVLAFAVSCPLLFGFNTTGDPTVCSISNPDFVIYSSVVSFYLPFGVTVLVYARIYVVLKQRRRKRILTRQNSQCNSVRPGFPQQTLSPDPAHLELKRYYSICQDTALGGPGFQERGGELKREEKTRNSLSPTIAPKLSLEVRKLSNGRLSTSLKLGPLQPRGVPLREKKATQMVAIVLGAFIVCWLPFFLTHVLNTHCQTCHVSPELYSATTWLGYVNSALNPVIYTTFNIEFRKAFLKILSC

[5] = target: cGMP-inhibited 3',5'-cyclic phosphodiesterase 3A (Homo sapiens, UniProt Q14432); type: functional
cGMP-inhibited 3',5'-cyclic phosphodiesterase 3A, sequence (Q14432 whole entry): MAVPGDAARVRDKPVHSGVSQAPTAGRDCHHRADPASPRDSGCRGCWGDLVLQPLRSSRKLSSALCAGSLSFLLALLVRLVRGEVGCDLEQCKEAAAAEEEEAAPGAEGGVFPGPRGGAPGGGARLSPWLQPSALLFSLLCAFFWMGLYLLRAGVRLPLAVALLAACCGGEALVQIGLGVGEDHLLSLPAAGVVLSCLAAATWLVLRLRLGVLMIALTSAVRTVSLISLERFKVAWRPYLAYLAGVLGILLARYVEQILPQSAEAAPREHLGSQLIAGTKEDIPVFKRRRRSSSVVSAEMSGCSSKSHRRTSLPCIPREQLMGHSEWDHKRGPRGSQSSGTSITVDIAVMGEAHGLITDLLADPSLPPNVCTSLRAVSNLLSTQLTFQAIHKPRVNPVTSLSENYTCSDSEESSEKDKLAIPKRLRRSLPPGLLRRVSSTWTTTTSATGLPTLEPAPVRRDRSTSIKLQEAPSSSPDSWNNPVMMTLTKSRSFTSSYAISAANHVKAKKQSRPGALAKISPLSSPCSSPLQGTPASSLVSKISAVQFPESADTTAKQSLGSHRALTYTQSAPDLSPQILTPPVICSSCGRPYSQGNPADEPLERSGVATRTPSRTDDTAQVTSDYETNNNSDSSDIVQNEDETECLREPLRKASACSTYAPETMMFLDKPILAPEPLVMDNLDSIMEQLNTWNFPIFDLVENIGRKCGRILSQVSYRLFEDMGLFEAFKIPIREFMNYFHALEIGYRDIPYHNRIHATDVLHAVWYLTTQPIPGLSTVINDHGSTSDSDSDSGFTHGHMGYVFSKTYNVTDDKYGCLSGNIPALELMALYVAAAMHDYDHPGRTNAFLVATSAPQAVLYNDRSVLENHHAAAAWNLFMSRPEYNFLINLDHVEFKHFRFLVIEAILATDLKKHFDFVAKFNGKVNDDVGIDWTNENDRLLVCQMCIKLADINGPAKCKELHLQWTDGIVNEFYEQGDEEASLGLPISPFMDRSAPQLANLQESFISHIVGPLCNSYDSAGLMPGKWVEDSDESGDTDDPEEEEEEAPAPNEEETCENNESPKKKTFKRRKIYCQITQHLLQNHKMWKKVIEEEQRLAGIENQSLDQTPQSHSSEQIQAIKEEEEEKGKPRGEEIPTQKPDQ

[6] = target: T2, Alpha-2B adrenergic receptor (Homo sapiens, UniProt P18089)
T2 sequence (P18089 whole entry): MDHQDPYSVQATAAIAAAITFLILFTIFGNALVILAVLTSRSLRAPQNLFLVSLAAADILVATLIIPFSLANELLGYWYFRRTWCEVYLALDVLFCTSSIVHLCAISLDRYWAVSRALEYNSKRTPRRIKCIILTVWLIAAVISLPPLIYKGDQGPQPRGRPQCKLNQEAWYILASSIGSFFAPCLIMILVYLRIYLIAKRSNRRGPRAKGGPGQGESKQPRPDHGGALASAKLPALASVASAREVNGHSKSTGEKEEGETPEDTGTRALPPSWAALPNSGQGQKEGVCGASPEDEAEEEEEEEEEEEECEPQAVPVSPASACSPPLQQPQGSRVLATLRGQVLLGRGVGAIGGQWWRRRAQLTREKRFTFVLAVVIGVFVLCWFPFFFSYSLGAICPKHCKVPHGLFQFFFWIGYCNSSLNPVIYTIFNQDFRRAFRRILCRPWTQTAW

[7] = target: 5-hydroxytryptamine receptor 2B (Homo sapiens, UniProt P41595); type: functional, cell-based
5-hydroxytryptamine receptor 2B, sequence (P41595 whole entry): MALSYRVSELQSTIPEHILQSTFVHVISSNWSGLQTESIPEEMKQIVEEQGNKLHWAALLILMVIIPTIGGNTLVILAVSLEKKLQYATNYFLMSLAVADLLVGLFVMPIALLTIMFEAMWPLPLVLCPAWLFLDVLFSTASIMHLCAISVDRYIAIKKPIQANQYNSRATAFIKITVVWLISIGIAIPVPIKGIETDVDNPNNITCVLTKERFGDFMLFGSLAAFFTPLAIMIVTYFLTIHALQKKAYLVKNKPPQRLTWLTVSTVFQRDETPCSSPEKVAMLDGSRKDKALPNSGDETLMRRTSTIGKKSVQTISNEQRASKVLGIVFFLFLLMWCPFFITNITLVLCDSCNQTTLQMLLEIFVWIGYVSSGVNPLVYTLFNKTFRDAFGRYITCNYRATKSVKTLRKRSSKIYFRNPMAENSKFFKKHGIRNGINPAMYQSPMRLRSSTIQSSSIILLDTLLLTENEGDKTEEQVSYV

[8] = target: T3, Cholecystokinin receptor type A (Homo sapiens, UniProt P32238)
T3 sequence (P32238 whole entry): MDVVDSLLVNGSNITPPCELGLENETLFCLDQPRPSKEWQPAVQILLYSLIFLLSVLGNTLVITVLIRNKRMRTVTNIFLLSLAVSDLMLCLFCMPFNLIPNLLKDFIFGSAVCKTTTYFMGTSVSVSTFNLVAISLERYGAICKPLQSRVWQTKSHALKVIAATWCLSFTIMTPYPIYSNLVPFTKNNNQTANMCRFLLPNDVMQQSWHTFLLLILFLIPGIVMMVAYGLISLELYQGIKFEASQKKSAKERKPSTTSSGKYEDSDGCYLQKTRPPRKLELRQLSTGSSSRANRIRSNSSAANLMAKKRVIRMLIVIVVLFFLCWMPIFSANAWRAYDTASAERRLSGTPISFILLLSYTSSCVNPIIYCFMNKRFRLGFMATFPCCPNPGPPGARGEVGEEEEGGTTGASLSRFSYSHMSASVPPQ

[9] = target: Motilin receptor (Homo sapiens, UniProt O43193)
Motilin receptor, sequence (O43193 whole entry): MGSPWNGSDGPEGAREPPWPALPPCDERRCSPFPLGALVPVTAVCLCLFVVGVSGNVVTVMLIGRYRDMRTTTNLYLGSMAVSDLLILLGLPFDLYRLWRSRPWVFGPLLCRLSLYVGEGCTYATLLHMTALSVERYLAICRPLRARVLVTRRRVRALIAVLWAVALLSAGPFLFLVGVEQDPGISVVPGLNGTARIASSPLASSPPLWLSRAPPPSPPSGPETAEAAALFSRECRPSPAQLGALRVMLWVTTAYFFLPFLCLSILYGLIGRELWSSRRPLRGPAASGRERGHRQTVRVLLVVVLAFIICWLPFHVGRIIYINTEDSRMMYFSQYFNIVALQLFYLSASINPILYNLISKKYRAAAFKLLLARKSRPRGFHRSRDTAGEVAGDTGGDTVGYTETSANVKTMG

[10] = target: Growth hormone secretagogue receptor type 1 (Homo sapiens, UniProt Q92847)
Growth hormone secretagogue receptor type 1, sequence (Q92847 whole entry): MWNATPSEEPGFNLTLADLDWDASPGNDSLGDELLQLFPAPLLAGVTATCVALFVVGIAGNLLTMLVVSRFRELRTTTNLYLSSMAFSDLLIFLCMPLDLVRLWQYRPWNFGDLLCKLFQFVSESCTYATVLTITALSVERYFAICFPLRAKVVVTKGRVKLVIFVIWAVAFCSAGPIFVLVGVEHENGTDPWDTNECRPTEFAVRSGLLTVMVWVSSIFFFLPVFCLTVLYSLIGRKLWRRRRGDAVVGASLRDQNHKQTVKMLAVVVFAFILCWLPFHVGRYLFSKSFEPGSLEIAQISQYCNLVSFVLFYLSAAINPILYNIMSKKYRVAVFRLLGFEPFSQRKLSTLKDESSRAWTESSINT

[11] = target: T4, Gastrin/cholecystokinin type B receptor (Homo sapiens, UniProt P32239)
T4 sequence (P32239 whole entry): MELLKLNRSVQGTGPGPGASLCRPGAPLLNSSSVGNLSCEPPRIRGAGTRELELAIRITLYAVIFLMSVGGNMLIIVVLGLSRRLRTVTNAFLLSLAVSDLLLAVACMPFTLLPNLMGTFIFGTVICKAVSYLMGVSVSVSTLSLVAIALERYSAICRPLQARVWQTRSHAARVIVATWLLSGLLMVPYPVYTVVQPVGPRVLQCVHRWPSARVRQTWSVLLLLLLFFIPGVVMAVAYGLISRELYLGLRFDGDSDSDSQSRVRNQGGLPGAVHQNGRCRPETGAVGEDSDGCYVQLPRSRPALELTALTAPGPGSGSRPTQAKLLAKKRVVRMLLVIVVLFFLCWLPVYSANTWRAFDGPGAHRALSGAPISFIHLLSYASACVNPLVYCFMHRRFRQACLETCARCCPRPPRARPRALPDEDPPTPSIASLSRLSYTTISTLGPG

[12] = target: Vasopressin V1a receptor (Homo sapiens, UniProt P37288)
Vasopressin V1a receptor, sequence (P37288 whole entry): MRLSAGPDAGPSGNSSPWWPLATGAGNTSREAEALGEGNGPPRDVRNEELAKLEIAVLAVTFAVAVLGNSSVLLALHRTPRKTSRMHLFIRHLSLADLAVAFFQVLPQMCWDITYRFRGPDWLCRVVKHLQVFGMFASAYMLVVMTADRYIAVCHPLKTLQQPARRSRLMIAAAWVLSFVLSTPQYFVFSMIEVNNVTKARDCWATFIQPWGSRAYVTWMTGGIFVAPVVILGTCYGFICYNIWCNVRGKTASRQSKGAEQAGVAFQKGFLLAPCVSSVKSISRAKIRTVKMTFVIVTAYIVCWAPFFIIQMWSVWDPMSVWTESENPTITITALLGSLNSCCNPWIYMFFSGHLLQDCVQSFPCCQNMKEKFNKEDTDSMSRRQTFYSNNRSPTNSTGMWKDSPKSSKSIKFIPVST

[13] = target: T5, Endothelin-1 receptor (Homo sapiens, UniProt P25101)
T5 sequence (P25101 whole entry): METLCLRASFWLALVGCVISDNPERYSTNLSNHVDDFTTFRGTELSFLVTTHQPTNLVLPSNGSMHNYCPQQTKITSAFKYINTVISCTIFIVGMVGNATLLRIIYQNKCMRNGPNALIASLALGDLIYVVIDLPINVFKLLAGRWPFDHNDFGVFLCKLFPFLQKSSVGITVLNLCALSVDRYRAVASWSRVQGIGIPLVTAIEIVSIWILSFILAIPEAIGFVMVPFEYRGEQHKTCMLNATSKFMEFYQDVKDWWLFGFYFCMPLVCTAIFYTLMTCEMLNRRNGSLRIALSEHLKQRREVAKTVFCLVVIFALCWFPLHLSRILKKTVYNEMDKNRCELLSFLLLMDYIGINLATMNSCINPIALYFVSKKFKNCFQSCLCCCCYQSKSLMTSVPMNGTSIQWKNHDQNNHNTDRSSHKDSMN
Further: assay procedure not described here.

Sodium-dependent dopamine transporter, sequence (Q01959 whole entry): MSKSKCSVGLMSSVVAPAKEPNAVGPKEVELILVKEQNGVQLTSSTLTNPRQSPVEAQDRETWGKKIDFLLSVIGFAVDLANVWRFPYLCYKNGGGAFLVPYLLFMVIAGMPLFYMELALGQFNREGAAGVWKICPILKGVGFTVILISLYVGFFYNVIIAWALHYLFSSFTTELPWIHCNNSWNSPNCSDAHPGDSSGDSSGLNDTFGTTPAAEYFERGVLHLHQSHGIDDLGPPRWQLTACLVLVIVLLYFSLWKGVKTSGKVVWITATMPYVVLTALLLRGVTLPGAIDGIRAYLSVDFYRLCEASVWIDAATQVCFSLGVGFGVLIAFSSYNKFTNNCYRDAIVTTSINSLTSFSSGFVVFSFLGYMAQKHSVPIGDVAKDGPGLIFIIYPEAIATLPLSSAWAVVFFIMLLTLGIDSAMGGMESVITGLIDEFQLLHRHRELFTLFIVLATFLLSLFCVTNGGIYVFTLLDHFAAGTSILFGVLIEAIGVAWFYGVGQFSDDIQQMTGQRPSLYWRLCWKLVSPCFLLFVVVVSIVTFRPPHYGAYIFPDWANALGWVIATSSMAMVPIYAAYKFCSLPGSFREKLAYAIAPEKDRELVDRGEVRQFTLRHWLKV
Sodium-dependent noradrenaline transporter, sequence (P23975 whole entry): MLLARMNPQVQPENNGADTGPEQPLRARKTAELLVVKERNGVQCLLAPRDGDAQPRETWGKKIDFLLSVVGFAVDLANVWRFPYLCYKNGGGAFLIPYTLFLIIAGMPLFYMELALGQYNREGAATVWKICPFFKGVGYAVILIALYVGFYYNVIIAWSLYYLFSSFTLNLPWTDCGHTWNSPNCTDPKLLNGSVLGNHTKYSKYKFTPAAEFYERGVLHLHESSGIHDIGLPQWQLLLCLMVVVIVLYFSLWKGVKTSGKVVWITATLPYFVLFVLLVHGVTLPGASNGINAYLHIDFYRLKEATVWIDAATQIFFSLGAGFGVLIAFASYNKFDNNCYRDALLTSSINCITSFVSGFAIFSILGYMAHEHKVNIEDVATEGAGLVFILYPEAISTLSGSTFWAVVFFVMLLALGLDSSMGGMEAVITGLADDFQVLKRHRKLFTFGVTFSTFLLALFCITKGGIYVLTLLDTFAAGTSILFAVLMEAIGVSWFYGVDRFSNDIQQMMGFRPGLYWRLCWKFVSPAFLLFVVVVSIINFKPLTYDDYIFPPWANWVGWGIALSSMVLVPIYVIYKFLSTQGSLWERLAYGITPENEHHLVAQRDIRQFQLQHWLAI

Compound	AC50 [1]	AC50 [2]	AC50 [3]	AC50 [4]	AC50 [5]	AC50 [6]	AC50 [7]	AC50 [8]	AC50 [9]	AC50 [10]	AC50 [11]	AC50 [12]	AC50 [13]
COc1ccccc1N1CCN(CC(O)COc2cccc3ccccc23)CC1 (stereo not given) [NAFTOPIDIL]	9.6 µM	5.5 µM	> 30 µM	0.42 µM	> 30 µM	0.3 µM	0.84 µM						
CCOc1ccc(Cc2cc([C@@H]3O[C@H](CO)[C@@H](O)[C@H](O)[C@H]3O)ccc2Cl)cc1 [DAPAGLIFLOZIN]	> 30 µM	> 30 µM		> 30 µM	> 30 µM	> 10 µM		> 30 µM	> 10 µM	> 30 µM	> 30 µM	> 30 µM	
O=[N+]([O-])c1cn2c(n1)OC[C@@H](OCc1ccc(OC(F)(F)F)cc1)C2 [PRETOMANID]	> 10 µM	> 10 µM		> 10 µM	> 10 µM	> 10 µM		> 30 µM	> 10 µM	> 30 µM	> 30 µM	> 10 µM	> 30 µM
COC1=C(OC)C(=O)C(C/C=C(\C)CC/C=C(\C)CC/C=C(\C)CC/C=C(\C)CC/C=C(\C)CC/C=C(\C)CC/C=C(\C)CC/C=C(\C)CC/C=C(\C)CCC=C(C)C)=C(C)C1=O [UBIDECARENONE]			> 30 µM	> 30 µM	> 30 µM	> 30 µM	> 30 µM						
C=CCN1C[C@H](C(=O)N(CCCN(C)C)C(=O)NCC)C[C@@H]2c3cccc4[nH]cc(c34)C[C@H]21 [CABERGOLINE]	8.7 µM	5.4 µM	> 30 µM	0.0076 µM	> 30 µM			> 10 µM	> 10 µM	> 10 µM		> 10 µM	
CCCC1O[C@@H]2C[C@H]3[C@@H]4CCC5=CC(=O)C=C[C@]5(C)[C@H]4[C@@H](O)C[C@]3(C)[C@]2(C(=O)CO)O1 (stereo not given in full) [BUDESONIDE]	> 10 µM	> 10 µM	> 10 µM	> 30 µM	> 30 µM		> 10 µM	> 10 µM	> 10 µM	> 10 µM		> 10 µM	
CN1CCN(C2=Nc3ccccc3Sc3ccc(Cl)cc32)CC1 [CLOTHIAPINE]			> 30 µM	0.35 µM	> 30 µM	1.3 µM	1.3 µM						
CN(C)CCC=C1c2ccccc2C=Cc2ccccc21 [CYCLOBENZAPRINE]	0.378 µM	> 30 µM		1.1 µM	> 30 µM	> 10 µM	1.25 µM	> 30 µM	> 10 µM	> 30 µM	> 30 µM	> 30 µM	> 30 µM
Cc1cc(C)c(NC(=O)CN(CC(=O)O)CC(=O)O)c(C)c1Br [MEBROFENIN]			> 30 µM	22 µM	> 30 µM	> 30 µM	> 30 µM						
CC[C@H]1CN2CCc3cc(OC)c(OC)cc3[C@@H]2C[C@@H]1C[C@H]1NCCc2cc(OC)c(OC)cc21 [EMETINE]	> 30 µM	> 30 µM	> 30 µM		> 30 µM		> 30 µM	> 30 µM	> 30 µM	> 30 µM	> 30 µM	> 30 µM	> 30 µM
